Here are results for six molecules from article PMC3336786 (The FASEB Journal, 2012).

Series [1] concerns the target α1V2'Aβ2γ2 (Homo sapiens, UniProt P14867+P18507+P47870, V284A). Format: cell-based.
The target of series [2] is α1β2γ2 GABAA receptors (Homo sapiens, UniProt P14867+P18507+P47870). Nature of the series: Two-electrode voltage clamp of α1β2γ2 GABAA receptors in Xenopus oocytes. Format: cell-based.
Series [3] addresses T1, RDL (Drosophila melanogaster, UniProt P25123).
T1 sequence (P25123 45-606): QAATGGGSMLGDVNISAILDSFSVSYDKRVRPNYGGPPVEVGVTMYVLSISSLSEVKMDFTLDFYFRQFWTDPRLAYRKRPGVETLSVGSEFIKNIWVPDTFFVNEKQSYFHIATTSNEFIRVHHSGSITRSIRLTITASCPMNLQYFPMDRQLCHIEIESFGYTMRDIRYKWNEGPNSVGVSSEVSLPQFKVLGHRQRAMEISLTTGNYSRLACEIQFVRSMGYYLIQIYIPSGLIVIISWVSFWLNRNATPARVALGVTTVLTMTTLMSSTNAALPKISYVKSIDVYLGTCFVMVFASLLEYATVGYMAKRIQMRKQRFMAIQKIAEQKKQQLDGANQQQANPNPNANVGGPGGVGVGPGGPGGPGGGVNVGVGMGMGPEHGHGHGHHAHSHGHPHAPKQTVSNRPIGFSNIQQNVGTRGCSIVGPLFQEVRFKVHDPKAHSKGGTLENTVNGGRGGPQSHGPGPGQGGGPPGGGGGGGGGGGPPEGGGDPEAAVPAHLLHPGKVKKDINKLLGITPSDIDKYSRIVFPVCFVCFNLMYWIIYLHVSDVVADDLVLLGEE
Format: cell-based.

Series [4] has as its target T2, RDLA2'V (Drosophila melanogaster, UniProt P25123, A301V).
T2 sequence (P25123 45-606 A301V): T1 sequence (P25123 45-606) with A257V
Nature of the series: cell-based. Type of series: cell-based.

Series [5] deals with T3, RDLT6'V (Drosophila melanogaster, UniProt P25123, T305V).
T3 sequence (P25123 45-606 T305V): T1 sequence (P25123 45-606) with T261V
Nature of the series: Two-electrode voltage clamp of RDLT6'V mutant receptors in Xenopus oocytes. Format: cell-based.

Series [6] addresses T4, human α1β2 GABAA receptors (Homo sapiens, UniProt P14867+P47870).
T4 sequence (P14867 28-456): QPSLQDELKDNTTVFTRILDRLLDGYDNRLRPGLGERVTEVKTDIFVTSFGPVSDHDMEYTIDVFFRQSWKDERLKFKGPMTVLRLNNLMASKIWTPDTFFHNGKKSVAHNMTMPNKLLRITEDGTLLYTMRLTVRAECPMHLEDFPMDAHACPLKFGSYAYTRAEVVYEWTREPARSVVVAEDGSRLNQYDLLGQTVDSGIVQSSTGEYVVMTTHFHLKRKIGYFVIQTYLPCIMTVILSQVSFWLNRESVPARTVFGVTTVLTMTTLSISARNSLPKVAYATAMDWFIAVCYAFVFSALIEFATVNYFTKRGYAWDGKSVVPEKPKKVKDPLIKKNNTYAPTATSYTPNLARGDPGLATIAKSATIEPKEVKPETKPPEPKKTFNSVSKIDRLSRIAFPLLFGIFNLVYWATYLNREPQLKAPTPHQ
T4 sequence (P47870 26-512): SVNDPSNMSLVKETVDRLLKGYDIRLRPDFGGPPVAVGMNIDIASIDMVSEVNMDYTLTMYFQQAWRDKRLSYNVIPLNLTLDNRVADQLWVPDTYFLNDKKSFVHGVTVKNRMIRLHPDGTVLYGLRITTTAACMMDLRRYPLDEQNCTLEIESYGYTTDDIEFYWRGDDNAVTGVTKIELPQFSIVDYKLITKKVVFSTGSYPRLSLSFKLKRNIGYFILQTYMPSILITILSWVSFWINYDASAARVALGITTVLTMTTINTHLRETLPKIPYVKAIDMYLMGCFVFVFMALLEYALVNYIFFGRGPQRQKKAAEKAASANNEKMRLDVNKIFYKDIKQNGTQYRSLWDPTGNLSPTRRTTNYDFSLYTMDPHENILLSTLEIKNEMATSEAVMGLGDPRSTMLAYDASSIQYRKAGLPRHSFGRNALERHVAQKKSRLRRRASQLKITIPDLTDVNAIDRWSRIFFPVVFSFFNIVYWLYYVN
Description: Two-electrode voltage clamp of α1β2 GABAA receptors in Xenopus oocytes. Conditions: for IC50: IC50, inhibition of GABA EC50 response. Format: cell-based.

In series [7] the target is T5, α1V2'Aβ2 (Homo sapiens, UniProt P14867+P47870, V284A).
T5 sequence (P14867 28-456 V284A): T4 sequence (P14867 28-456) with V257A
T5 sequence (P47870 26-512): T4 sequence (P47870 26-512)
Type of series: cell-based.

Series [8] relates to Canton-S adult D. melanogaster. Nature of the series: Coated vial bioassay, wild-type. Type of series: in vivo. Conditions: for LD50: coated vial.
Series [9] concerns dieldrin-resistant (Rdl) adult D. melanogaster. Description: Coated vial bioassay, dieldrin-resistant. Format: in vivo. Conditions: flies with A2'S mutation; ginkgolides up to 5000 ppm (limited by solubility).
In series [10] the test system is humans. Conditions: cited from earlier work.
The mark [11] stands for this setting: concentration-inhibition curve at GABA EC50.

Changes are numbered by the printed parent chain. Where “and” joins values, the source holds several entries; their conditions need not be identical. Identical values can stand only once. Like-named read-outs stand apart in the source and are kept apart here.

Sequence of α1V2'Aβ2γ2 (P14867 28-456 V284A, one chain of several): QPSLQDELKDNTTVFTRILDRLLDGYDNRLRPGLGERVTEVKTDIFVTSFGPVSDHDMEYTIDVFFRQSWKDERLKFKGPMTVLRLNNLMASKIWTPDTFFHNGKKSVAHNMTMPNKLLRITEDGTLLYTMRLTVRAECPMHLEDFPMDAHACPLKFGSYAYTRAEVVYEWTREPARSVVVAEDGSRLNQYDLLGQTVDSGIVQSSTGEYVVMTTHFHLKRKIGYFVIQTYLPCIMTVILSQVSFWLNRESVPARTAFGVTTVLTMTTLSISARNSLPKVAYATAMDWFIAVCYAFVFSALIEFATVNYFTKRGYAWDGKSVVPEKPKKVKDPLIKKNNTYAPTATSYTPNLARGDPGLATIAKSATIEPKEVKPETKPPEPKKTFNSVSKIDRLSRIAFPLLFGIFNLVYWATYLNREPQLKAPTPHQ
Sequence of α1V2'Aβ2γ2 (P18507 40-475, one chain of several): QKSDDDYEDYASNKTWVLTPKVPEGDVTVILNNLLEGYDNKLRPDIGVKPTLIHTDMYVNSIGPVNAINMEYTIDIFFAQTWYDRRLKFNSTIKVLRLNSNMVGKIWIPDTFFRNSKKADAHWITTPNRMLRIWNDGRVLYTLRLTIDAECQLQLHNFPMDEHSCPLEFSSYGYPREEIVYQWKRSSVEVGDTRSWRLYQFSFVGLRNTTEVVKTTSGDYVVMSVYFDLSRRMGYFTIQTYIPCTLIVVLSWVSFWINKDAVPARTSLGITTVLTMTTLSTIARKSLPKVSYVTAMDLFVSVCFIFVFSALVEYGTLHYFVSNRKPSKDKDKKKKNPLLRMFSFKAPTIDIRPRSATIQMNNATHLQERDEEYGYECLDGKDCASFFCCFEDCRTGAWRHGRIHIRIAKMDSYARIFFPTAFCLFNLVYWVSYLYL
Sequence of α1β2γ2 GABAA receptors (P18507 40-475, one chain of several): as above

On to `NCCCC(=O)O` [GABA, γ-aminobutyric acid, reference compound], for which the “nH (Hill coefficient)” value in [1] (GABA concentration-response) is 1.10 ± 0.11; in series [2] (GABA concentration-response), 1.64 ± 0.16; in [3] (GABA concentration-response), 1.8 and 1.80 ± 0.20; in series [4] (GABA concentration-response) it was 2.20 ± 0.02; in series [5] (GABA concentration-response), 1.44 ± 0.29; in [6] (GABA concentration-response), 1.43 ± 0.18. In series [7] (GABA concentration-response), the “nH (Hill coefficient)” value came to 1.14 ± 0.12. The “increase in GABA sensitivity, α1 2' mutation vs wild type” value in series [7] (α1V2'A-containing α1β2 and α1β2γ2 receptors) was 20–50 fold.
For the molecule ginkgolide B [GB], the “nH (Hill coefficient)” value is recorded as 1.43 ± 0.29 in [1] (setting [11]); 0.61 ± 0.06 in [2] (setting [11]); 1.43 ± 0.14 in series [3] (setting [11]); 1.02 ± 0.20 in [4] (setting [11]); 1.00 ± 0.70 in series [5] (concentration-inhibition curve); 0.94 ± 0.06 in series [6] (setting [11]). The “nH (Hill coefficient)” value in [7] (setting [11]) is 1.13 ± 0.09. Further, the LD50 was 0.171 mg/mL in series [8] (24 h), 0.031 mg/mL in series [8] (48 h) and 0.010 mg/mL in [8] (72 h).
With `C[C@@H]1C(=O)O[C@H]2C[C@@]34[C@H]5C[C@@H](C(C)(C)C)[C@]36[C@@H](OC(=O)[C@@H]6O)O[C@@]4(C(=O)O5)[C@]21O` [GA, ginkgolide A], the “nH (Hill coefficient)” value in series [1] (setting [11]) came out at 0.86 ± 0.10; in series [2] (setting [11]) it was 0.49 ± 0.07; in series [3] (setting [11]), 1.13 ± 0.18; in series [4] (setting [11]), 1.48 ± 0.19; in [6] (setting [11]) it was 0.65 ± 0.08; in series [7] (setting [11]), 0.87 ± 0.14. Further, the half-maximal inhibitory concentration (IC50) in [2] is 38.9 µM; in series [3] (IC50, inhibition of GABA EC50 response, second stable level of inhibition) it was 3 nM; in [3] (IC50, inhibition of GABA-evoked RDL currents, as printed in text and Fig. 6) it was 3.1 nM; in series [3] (pIC50, inhibition of GABA EC50 response, second stable level of inhibition), 3.24 nM; in series [6], 15.8 µM. The figures for the LD50 in [8] (24 h), in [8] (48 h) and in series [8] (72 h) were 0.345 mg/mL, 0.063 mg/mL and 0.019 mg/mL, respectively.
As for `ClC1=C(Cl)[C@]2(Cl)[C@@H]3[C@@H]4C[C@@H]([C@H]5O[C@@H]45)[C@@H]3[C@@]1(Cl)C2(Cl)Cl` [dieldrin, reference compound], the LD50 was found to be 0.002 mg/mL in series [8] (24 h, wild-type flies); 0.002 mg/mL in [8] (48 h, wild-type flies); 0.0017 mg/mL in series [8] (72 h, wild-type flies). Besides, the “mortality / toxicity (in words)” value in series [8] (wild-type (susceptible) flies) is “highly effective in killing”; in series [9] it was “no significant mortality up to 72 h”.
On to `N#Cc1nn(-c2c(Cl)cc(C(F)(F)F)cc2Cl)c(N)c1[S+]([O-])C(F)(F)F` (stereo not shown) [fipronil], for which, in series [10], the “U.S. Environmental Protection Agency ranking” value was “moderately toxic”.
Regarding `CC(C)(C)[C@]1(O)CC2OC(=O)CC23C(=O)OC2OC(=O)[C@H](O)C231` (stereo partly shown) [BB, bilobalide], the IC50 in [1] is 3.55 µM; in series [2], 22.9 µM; in series [3], 316 nM; in series [6] it was 9.33 µM; in [7] (IC50, inhibition of GABA EC50 response), 2040 nM. For the same molecule, the “nH (Hill coefficient)” value in series [1] (setting [11]) is reported as 1.16 ± 0.20; in series [2] (setting [11]), 0.68 ± 0.10; in series [3] (setting [11]), 0.89 ± 0.09; in series [4] (setting [11]), 1.85 ± 0.21; in [6] (setting [11]) it was 0.85 ± 0.10; in [7] (setting [11]) it was 1.06 ± 0.10. For the same molecule, the LD50 in [8] (24 h) came to 0.331 mg/mL; in series [8] (48 h), 0.009 mg/mL; in series [8] (72 h), 0.006 mg/mL.
